Laboratory results published in patent publication US20250064773A1, “TARGETING ERO1 ALPHA WITH AURONE DERIVATIVES” (West Virginia University Board of Governors on behalf of …, priority 2021, published 2025).
Like-named read-outs stand apart in the source and are kept apart here.

Test system: PC-9 non-small cell lung cancer cell line
Assay: MTT viability assay, PC-9
Type: cell-based
Conditions: 72 hours
Method: We utilized an MTT assay to determine the potency of the compounds for inhibiting cell growth. […] We next asked whether T151742 induced inhibition of cell growth was dependent on ERO1α expression. As shown in FIG. 6C two ERO1α deleted clones in the PC-9 cell line were isolated. Using an MTT assay to determine overall cellar viability, a non-targeted control (scramble), and both ERO1α knockout clones was subjected to treatment with T151742 for 72 hours (See FIG. 6D). […] Though only slight differences were observed between T151742 and EN-460 we tested the effects of these compounds in a clonogenic assay which is a better test for inhibition of self-renewal.
Cell Lines: PC-9 cell line used was obtained from Sigma Aldrich and grown in RPMI 1640 medium with 10% fetal bovine serum and 1% penicillin/streptomycin. HCC4006, U266, MM1.s, and Beas-2B cell lines were obtained from ATCC and cultured in either RPMI 1640 or DMEM with 10% fetal bovine serum and 1% penicillin/streptomycin. All cell lines were also checked for mycoplasma every six months and subjected to short tandem repeat (STR) analysis for cell line validation. CRISPR Cas9: CRISPR Guide RNA 2 targeting ERO1α and CRISPR Guide RNA 4 were purchased from Genscript in the pLentiCRISPR V2 plasmid containing puromycin/ampicillin selection marker. Lentivirus was made from HEK 293T cells by co-transfection with GuideRNA of interest, pVSVG, and pPAX2 plasmids. Lentivirus was collected after 48 hours and concentrated using 40% PEG8000. […] Plate was then read on the BioTek Cytation 5 at 530/590 nm. […] Plate was then read at 570 nm. Treated wells were all compared to DMSO control wells to calculate percent growth inhibition and the IC50 was calculated using GraphPad (log(inhibitor) vs growth inhibition). […] Images were then quantified using ImageJ. […] Cells were aliquoted at 1 million cells per PCR tube in PBS and heated in Bio-Rad T100 thermal cycler at indicated temperatures (RT, 46° C., 48° C., 50° C., 52° C., 54° C., 56°, 58° C., and 60° C.) for 3 minutes and aggregation temperature was determined by western blot analysis. […]

SMILES: CN(C)c1ccc(/C=C2\Oc3cc(O)ccc3C2=O)cc1 [Compound T151742]
- IC50 (read-out: IC50, MTT assay, PC-9): 14.1 ± 3.99 µM
- IC50 (non-targeted control (scramble), read-out: IC50, MTT assay, PC-9 WT): 14.1 µM
